From patent US20250281462A1, “THERAPEUTICALLY EFFECTIVE ORAL ADMINISTRATION OF A 2 ARYLBENZIMIDAZOLE” (Tranquis Therapeutics, Inc., priority 2021, published 2025)
Several values for one entry are separate records, joined by “and”; a condition that tells them apart may be missing. Equal entries are not always repeated.

Legend:
[1] = Plasma and brain concentrations after single oral dose 45 mg/kg in mice; format: in vivo; details: TQS-168 45 mg/kg p.o.
Experimental: Mice were administered a single oral dose of 45 mg/kg TQS-168. TQS-168 was prepared at a concentration of 5.0 mg/mL as a solution in 10% polyethylene glycol (PEG) 400|130% Kleptose (Roquette) 60% water.
Concentrations in plasma and in brain were measured at various timepoints and various pharmacokinetic parameters were calculated, as shown below in Tables 4 and 5 and in FIGS. 19A and 19B.
TQS-168 was prepared as a 4.5 mg/ml solution in PEG400 10%| Kleptose 30% sterile water 60%. A single oral dose of 45 mg/kg was administered. Concentrations of TQS-621 were measured in plasma and brain over time.

[2] = Plasma concentrations of TQS-168 and TQS-621 after single oral dose 50 mg/kg in mice, three formulations; format: in vivo; details: mice plasma, TQS-168 50 mg/kg p.o.
Experimental: In a second experiment, mice were administered 50 mg/kg TQS-168 by oral gavage. For Group 1, TQS-168 was prepared at a concentration of 5.0 mg/mL in a suspension with […] in PBS. For Group 2, TQS-168 was prepared at a concentration of 5.0 mg/mL as a solution in 10 polyethylene glycol (PEG) 400|30 Kleptose (Roquete)|60% water.
Plasma exposures for Group 1 mice (ng/mL) are presented in Table 2 and for Group 2 mice in Table 3.
C57BL/6 male mice were administered a single dose of TQS-168 at 50 mg/kg using one of three formulations: Group 1-5.0 mg/ml suspension in 0.5% methylcellulose in PBS; Group 2-5.0 mg/ml solution in PEG400 (Fluka) 10%|Kleptose (Roquette) 30%|sterile water 60%; Group 3-5.0 mg/ml suspension in Labrafil M 1944 CS (Gattefosse) 30%|Masine CC (Gattefosse) 5%|Miglyol 812N 10%|sterile water 55%.
Plasma concentrations of TQS-168 and TQS-621 were measured overtime.

[3] = mouse, po, mice brain, solution PEG 400/Kleptose/water
[4] = mouse, po, mice plasma, solution PEG 400/Kleptose/water
[5] = male, C57BL/6, mouse, plasma, po, 50 mg/kg, Group 1 (suspension, 0.5% methylcellulose in PBS), mean
[6] = male, C57BL/6, mouse, plasma, po, 50 mg/kg, Group 2 (solution, PEG400/Kleptose/water), individual mouse
[7] = male, C57BL/6, mouse, plasma, po, 50 mg/kg, Group 2 (solution, PEG400/Kleptose/water), mean
[8] = male, C57BL/6, mouse, plasma, po, 50 mg/kg, Group 3 (suspension, Labrafil/Masine/Miglyol/water), individual mouse
[9] = male, C57BL/6, mouse, plasma, po, 50 mg/kg, Group 3 (suspension, Labrafil/Masine/Miglyol/water), mean
[10] = Group 1 (suspension, 0.5% methylcellulose in PBS), individual mouse
[11] = Group 2 (solution, PEG400/Kleptose/water), individual mouse
[12] = Group 2 (solution, PEG400/Kleptose/water), mean
[13] = Group 3 (suspension, Labrafil/Masine/Miglyol/water), individual mouse

CC(C)(C)c1ccc(-c2nc3cc(O)ccc3[nH]2)cc1 [TQS-621]
AUClast Ratio (Metabolites/Parent) ([1]; mice brain, solution): 0.172 | Cmax Ratio (Metabolite/Parent) ([1]; mice brain, solution): 0.159 | AUCInf ([1]; mice brain, solution PEG 400/Kleptose/water): 4282 ng·h/g | AUClast ([1]; mice brain, solution PEG 400/Kleptose/water, last time point 24 hr): 4234 ng·h/g | Cmax [1, 3]: 678 ng/g | Tmax [1, 3]: 4 h | half-life [1, 3]: 4.85 h | AUC(0-inf) [1, 4]: 4310 ng·h/mL | Cmax [1, 4]: 692 ng/mL | Tmax [1, 4]: 4 h | AUC(0-t) ([1]; mouse, po, mice plasma, solution PEG 400/Kleptose/water, last time point 24 hr): 4280 ng·h/mL | Cmax ([2]; male, C57BL/6, mouse, plasma, po, 50 mg/kg, Group 1 (suspension, 0.5% methylcellulose in PBS), individual mouse, read-out: Cmax): 239 ng/mL | Tmax ([2]; male, C57BL/6, mouse, plasma, po, 50 mg/kg, Group 1 (suspension, 0.5% methylcellulose in PBS), individual mouse, read-out: tmax): 1 h | AUC(0-inf) [2, 5]: 8200 ng·h/mL | AUC(0-t) [2, 5]: 1590 ng·h/mL | half-life [2, 5]: 28.3 h | Cmax ([2]; male, C57BL/6, mouse, plasma, po, 50 mg/kg, Group 1 (suspension, 0.5% methylcellulose in PBS), mean, read-out: Cmax): 235 ng/mL | Tmax ([2]; male, C57BL/6, mouse, plasma, po, 50 mg/kg, Group 1 (suspension, 0.5% methylcellulose in PBS), mean, read-out: tmax): 1.33 h | AUC(0-inf) [2, 6]: 3110 ng·h/mL | AUC(0-t) [2, 6]: 2880 ng·h/mL | half-life [2, 6]: 2.92 h | Cmax ([2]; male, C57BL/6, mouse, plasma, po, 50 mg/kg, Group 2 (solution, PEG400/Kleptose/water), individual mouse, read-out: Cmax): 487 ng/mL | Tmax ([2]; male, C57BL/6, mouse, plasma, po, 50 mg/kg, Group 2 (solution, PEG400/Kleptose/water), individual mouse, read-out: tmax): 2 h | AUC(0-inf) [2, 7]: 2960 ng·h/mL | AUC(0-t) [2, 7]: 2750 ng·h/mL | half-life [2, 7]: 2.9 h | Cmax ([2]; male, C57BL/6, mouse, plasma, po, 50 mg/kg, Group 2 (solution, PEG400/Kleptose/water), mean, read-out: Cmax): 449 ng/mL | Tmax ([2]; male, C57BL/6, mouse, plasma, po, 50 mg/kg, Group 2 (solution, PEG400/Kleptose/water), mean, read-out: tmax): 1.67 h | AUC(0-inf) [2, 8]: 612 ng·h/mL | AUC(0-t) [2, 8]: 564 ng·h/mL | Cmax ([2]; male, C57BL/6, mouse, plasma, po, 50 mg/kg, Group 3 (suspension, Labrafil/Masine/Miglyol/water), individual mouse, read-out: Cmax): 98.9 ng/mL | AUC(0-inf) [2, 9]: 584 ng·h/mL | AUC(0-t) [2, 9]: 533 ng·h/mL | half-life [2, 9]: 2.58 h | Cmax ([2]; male, C57BL/6, mouse, plasma, po, 50 mg/kg, Group 3 (suspension, Labrafil/Masine/Miglyol/water), mean, read-out: Cmax): 92 ng/mL | Tmax ([2]; male, C57BL/6, mouse, plasma, po, 50 mg/kg, Group 3 (suspension, Labrafil/Masine/Miglyol/water), mean, read-out: tmax): 3.33 h | AUCInf [2, 10]: 1163 ng·h/mL and 22064 ng·h/mL and 1379 ng·h/mL | AUClast [2, 10]: 1148 ng·h/mL and 2355 ng·h/mL and 1267 ng·h/mL | Cmax [2, 10]: 309 ng/mL and 156 ng/mL | t1/2 [2, 10]: 1.88 h and 80.8 h and 2.08 h | AUCInf [2, 11]: 2962 ng·h/mL and 2817 ng·h/mL | AUClast [2, 11]: 2862 ng·h/mL and 2513 ng·h/mL | Cmax [2, 11]: 483 ng/mL and 378 ng/mL | t1/2 [2, 11]: 2.17 h and 3.61 h | AUClast Ratio (Metabolite/Parent) [2, 12]: 0.256 | Cmax Ratio (Metabolite/Parent) [2, 12]: 0.211 | AUCInf [2, 13]: 621 ng·h/mL and 519 ng·h/mL | AUClast [2, 13]: 532 ng·h/mL and 504 ng·h/mL | Cmax [2, 13]: 117 ng/mL and 58.7 ng/mL | Tmax [2, 13]: 8 h | t1/2 [2, 13]: 3.43 h and 2.93 h and 1.38 h
